Laboratory results taken from ChEMBL document CHEMBL1201862, “PubChem BioAssay data set” (2004).
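Growth conditions: 96-well plates. Treatment: test compound, 48 hours, 5 concentrations. Analysis: linear interpolation between bracketing concentrations; unreached endpoints set to highest concentration. At the GI50, growth is halved.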 Calls of active or inactive are those of the source. No stated cut-off is given here; in the data, active = GI50 up to about 1.1 µM and inactive = higher.

Legend:
Assay in all cases: growth of human tumour cells (NCI), 48 h
786-0 = tested on: 786-0
A498 = tested on: A498
A549 = tested on: A549
ACHN = tested on: ACHN
BT-549 = tested on: BT-549
CCRF-CEM = tested on: CCRF-CEM
DU-145 = tested on: DU-145
EKVX = tested on: EKVX
HCC 2998 = tested on: HCC 2998
HCT-116 = tested on: HCT-116
HCT-15 = tested on: HCT-15
HL-60 = tested on: HL-60
HOP-62 = tested on: HOP-62
HOP-92 = tested on: HOP-92
HT-29 = tested on: HT-29
Hs-578T = tested on: Hs-578T
IGROV-1 = tested on: IGROV-1
K562 = tested on: K562
KM12 = tested on: KM12
M14 = tested on: M14
MCF7 = tested on: MCF7
MDA-MB-231 = tested on: MDA-MB-231
MDA-MB-435 = tested on: MDA-MB-435
MDA-N = tested on: MDA-N
MOLT-4 = tested on: MOLT-4
Malme-3M = tested on: Malme-3M
NCI-H226 = tested on: NCI-H226
NCI-H23 = tested on: NCI-H23
NCI-H460 = tested on: NCI-H460
NCI/ADR-RES = tested on: NCI/ADR-RES
OVCAR-3 = tested on: OVCAR-3
OVCAR-5 = tested on: OVCAR-5
OVCAR-8 = tested on: OVCAR-8
PC-3 = tested on: PC-3
RXF 393 = tested on: RXF 393
SF-268 = tested on: SF-268
SF-295 = tested on: SF-295
SF-539 = tested on: SF-539
SK-MEL-28 = tested on: SK-MEL-28
SK-MEL-2 = tested on: SK-MEL-2
SK-MEL-5 = tested on: SK-MEL-5
SK-OV-3 = tested on: SK-OV-3
SN12C = tested on: SN12C
SNB-19 = tested on: SNB-19
SR = tested on: SR
SW-620 = tested on: SW-620
T47D = tested on: T47D
TK-10 = tested on: TK-10
U-251 = tested on: U-251
UACC-62 = tested on: UACC-62
UO-31 = tested on: UO-31
CAKI-1 = tested on: CAKI-1
COLO 205 = tested on: COLO 205
LOX IMVI = tested on: LOX IMVI
NCI-H522 = tested on: NCI-H522
OVCAR-4 = tested on: OVCAR-4
RPMI-8226 = tested on: RPMI-8226
SNB-75 = tested on: SNB-75
UACC-257 = tested on: UACC-257

CN(C)c1ccc(/C=C/c2ccc3ccccc3[n+]2C)cc1
GI50 (786-0): 6.76 µM (inactive) | GI50 (A498): 20.1 µM (inactive) | GI50 (A549): 3.13 µM (inactive) | GI50 (ACHN): 5.62 µM (inactive) | GI50 (BT-549): 1.2 µM (inactive) | GI50 (CCRF-CEM): 1.66 µM (inactive) | GI50 (DU-145): 1.67 µM (inactive) | GI50 (EKVX): 1.62 µM (inactive) | GI50 (HCC 2998): 4.13 µM (inactive) | GI50 (HCT-116): 1.81 µM (inactive) | GI50 (HCT-15): 6.65 µM | GI50 (HL-60): 1.34 µM (inactive) | GI50 (HOP-62): 7.13 µM (inactive) | GI50 (HOP-92): 1.99 µM (inactive) | GI50 (HT-29): 3.37 µM (inactive) | GI50 (Hs-578T): 20.4 µM (inactive) | GI50 (IGROV-1): 3.54 µM (inactive) | GI50 (K562): 0.891 µM (active) | GI50 (KM12): 3.42 µM (inactive) | GI50 (M14): 4.12 µM (inactive) | GI50 (MCF7): 1.64 µM (inactive) | GI50 (MDA-MB-231): 3.28 µM (inactive) | GI50 (MDA-MB-435): 4.21 µM (inactive) | GI50 (MDA-N): 2.03 µM (inactive) | GI50 (MOLT-4): 1.47 µM (inactive) | GI50 (Malme-3M): 4.53 µM (inactive) | GI50 (NCI-H226): 3.13 µM (inactive) | GI50 (NCI-H23): 1.48 µM (inactive) | GI50 (NCI-H460): 3.64 µM (inactive) | GI50 (NCI/ADR-RES): > 100 µM (inactive) | GI50 (OVCAR-3): 2.97 µM (inactive) | GI50 (OVCAR-5): 7.01 µM (inactive) | GI50 (OVCAR-8): 1.39 µM (inactive) | GI50 (PC-3): 1.57 µM (inactive) | GI50 (RXF 393): 2.81 µM (inactive) | GI50 (SF-268): 4.45 µM (inactive) | GI50 (SF-295): 2.95 µM (inactive) | GI50 (SF-539): 5.24 µM (inactive) | GI50 (SK-MEL-28): 3.87 µM (inactive) | GI50 (SK-MEL-2): 1.48 µM (inactive) | GI50 (SK-MEL-5): 3.06 µM (inactive) | GI50 (SK-OV-3): 5.73 µM (inactive) | GI50 (SN12C): 2.96 µM (inactive) | GI50 (SNB-19): 4.31 µM (inactive) | GI50 (SR): 1.77 µM (inactive) | GI50 (SW-620): 2.12 µM (inactive) | GI50 (T47D): 1.63 µM (inactive) | GI50 (TK-10): 5.16 µM (inactive) | GI50 (U-251): 2.38 µM (inactive) | GI50 (UACC-62): 3.62 µM (inactive) | GI50 (UO-31): 2.07 µM (inactive)

C/C1=C\CC[C@@]2(C)O[C@@H]2C[C@@H](C2(C)CO2)CC/C(C)=C/CC1 (stereo partly specified)
GI50 (786-0): 16.8 µM (inactive) | GI50 (A498): > 100 µM (inactive) | GI50 (A549): 16.1 µM (inactive) | GI50 (ACHN): 17.9 µM (inactive) | GI50 (BT-549): 21.2 µM (inactive) | GI50 (CAKI-1): 19.6 µM (inactive) | GI50 (CCRF-CEM): 19.8 µM (inactive) | GI50 (COLO 205): 15.6 µM (inactive) | GI50 (DU-145): 24.8 µM (inactive) | GI50 (EKVX): 13.8 µM (inactive) | GI50 (HCC 2998): 15 µM (inactive) | GI50 (HCT-116): 20.4 µM (inactive) | GI50 (HCT-15): 10.3 µM | GI50 (HL-60): 27.1 µM (inactive) | GI50 (HOP-62): 30.3 µM (inactive) | GI50 (HOP-92): 33.7 µM (inactive) | GI50 (HT-29): 34.4 µM (inactive) | GI50 (Hs-578T): 19.5 µM (inactive) | GI50 (IGROV-1): 32.9 µM (inactive) | GI50 (K562): 34.4 µM (inactive) | GI50 (KM12): 17.5 µM (inactive) | GI50 (LOX IMVI): 14.4 µM (inactive) | GI50 (M14): 22.8 µM (inactive) | GI50 (MCF7): 21.7 µM (inactive) | GI50 (MDA-MB-231): 18.5 µM (inactive) | GI50 (MDA-MB-435): 20.6 µM (inactive) | GI50 (MDA-N): 25.6 µM (inactive) | GI50 (MOLT-4): 47.2 µM (inactive) | GI50 (Malme-3M): 15.3 µM (inactive) | GI50 (NCI-H226): 15.2 µM (inactive) | GI50 (NCI-H23): 19.4 µM (inactive) | GI50 (NCI-H460): 19.1 µM (inactive) | GI50 (NCI-H522): 23.7 µM (inactive) | GI50 (NCI/ADR-RES): 20.4 µM (inactive) | GI50 (OVCAR-3): 23.8 µM (inactive) | GI50 (OVCAR-4): 37.4 µM (inactive) | GI50 (OVCAR-5): 22.3 µM (inactive) | GI50 (OVCAR-8): 19.1 µM (inactive) | GI50 (PC-3): 22 µM (inactive) | GI50 (RPMI-8226): 31 µM (inactive) | GI50 (SF-268): 17.1 µM (inactive) | GI50 (SF-295): 22.1 µM (inactive) | GI50 (SF-539): 21.7 µM (inactive) | GI50 (SK-MEL-28): 21.7 µM (inactive) | GI50 (SK-MEL-2): 27.9 µM (inactive) | GI50 (SK-MEL-5): 21.7 µM (inactive) | GI50 (SK-OV-3): 49.3 µM (inactive) | GI50 (SN12C): 17.7 µM (inactive) | GI50 (SNB-19): 19.4 µM (inactive) | GI50 (SNB-75): 26.2 µM (inactive) | GI50 (SR): 33 µM (inactive) | GI50 (SW-620): 32.8 µM (inactive) | GI50 (T47D): 32.5 µM (inactive) | GI50 (TK-10): 15.4 µM (inactive) | GI50 (U-251): 15.4 µM (inactive) | GI50 (UACC-257): 36.8 µM (inactive) | GI50 (UACC-62): 16 µM (inactive) | GI50 (UO-31): 25.2 µM (inactive)

Cc1ccc(C2=Nc3cccc4cccc(c34)N2)cc1
GI50 (786-0): > 100 µM (inactive) | GI50 (A549): > 100 µM (inactive) | GI50 (ACHN): > 100 µM (inactive) | GI50 (BT-549): > 100 µM (inactive) | GI50 (CAKI-1): > 100 µM (inactive) | GI50 (CCRF-CEM): > 100 µM (inactive) | GI50 (COLO 205): > 100 µM (inactive) | GI50 (DU-145): > 100 µM (inactive) | GI50 (EKVX): > 100 µM (inactive) | GI50 (HCC 2998): > 100 µM (inactive) | GI50 (HCT-116): > 100 µM (inactive) | GI50 (HCT-15): > 100 µM | GI50 (HL-60): > 100 µM (inactive) | GI50 (HOP-62): > 100 µM (inactive) | GI50 (HOP-92): > 100 µM (inactive) | GI50 (HT-29): > 100 µM (inactive) | GI50 (Hs-578T): > 100 µM (inactive) | GI50 (IGROV-1): > 100 µM (inactive) | GI50 (K562): > 100 µM (inactive) | GI50 (KM12): > 100 µM (inactive) | GI50 (LOX IMVI): > 100 µM (inactive) | GI50 (M14): > 100 µM (inactive) | GI50 (MCF7): > 100 µM (inactive) | GI50 (MDA-MB-231): > 100 µM (inactive) | GI50 (MDA-MB-435): > 100 µM (inactive) | GI50 (MDA-N): > 100 µM (inactive) | GI50 (MOLT-4): > 100 µM (inactive) | GI50 (Malme-3M): > 100 µM (inactive) | GI50 (NCI-H226): > 100 µM (inactive) | GI50 (NCI-H23): > 100 µM (inactive) | GI50 (NCI-H460): > 100 µM (inactive) | GI50 (NCI-H522): > 100 µM (inactive) | GI50 (NCI/ADR-RES): > 100 µM (inactive) | GI50 (OVCAR-3): > 100 µM (inactive) | GI50 (OVCAR-4): > 100 µM (inactive) | GI50 (OVCAR-8): > 100 µM (inactive) | GI50 (PC-3): > 100 µM (inactive) | GI50 (RPMI-8226): > 100 µM (inactive) | GI50 (RXF 393): > 100 µM (inactive) | GI50 (SF-268): > 100 µM (inactive) | GI50 (SF-295): > 100 µM (inactive) | GI50 (SF-539): > 100 µM (inactive) | GI50 (SK-MEL-28): > 100 µM (inactive) | GI50 (SK-MEL-2): > 100 µM (inactive) | GI50 (SK-MEL-5): > 100 µM (inactive) | GI50 (SK-OV-3): > 100 µM (inactive) | GI50 (SN12C): > 100 µM (inactive) | GI50 (SNB-19): > 100 µM (inactive) | GI50 (SNB-75): > 100 µM (inactive) | GI50 (SR): > 100 µM (inactive) | GI50 (SW-620): > 100 µM (inactive) | GI50 (T47D): > 100 µM (inactive) | GI50 (TK-10): > 100 µM (inactive) | GI50 (U-251): > 100 µM (inactive) | GI50 (UACC-257): > 100 µM (inactive) | GI50 (UACC-62): > 100 µM (inactive) | GI50 (UO-31): > 100 µM (inactive)
